The record followed here is patent US7501418B2, “Fused heterocyclic isoxazoline derivatives and their use as anti-depressants” (Janssen Pharmaceutica, N.V., priority 2002, dated 2009).

One series addresses T1, hα2B receptor (Homo sapiens, UniProt P18089).
T1 construct: expressed in transfected cells
T1 sequence (P18089 1-450): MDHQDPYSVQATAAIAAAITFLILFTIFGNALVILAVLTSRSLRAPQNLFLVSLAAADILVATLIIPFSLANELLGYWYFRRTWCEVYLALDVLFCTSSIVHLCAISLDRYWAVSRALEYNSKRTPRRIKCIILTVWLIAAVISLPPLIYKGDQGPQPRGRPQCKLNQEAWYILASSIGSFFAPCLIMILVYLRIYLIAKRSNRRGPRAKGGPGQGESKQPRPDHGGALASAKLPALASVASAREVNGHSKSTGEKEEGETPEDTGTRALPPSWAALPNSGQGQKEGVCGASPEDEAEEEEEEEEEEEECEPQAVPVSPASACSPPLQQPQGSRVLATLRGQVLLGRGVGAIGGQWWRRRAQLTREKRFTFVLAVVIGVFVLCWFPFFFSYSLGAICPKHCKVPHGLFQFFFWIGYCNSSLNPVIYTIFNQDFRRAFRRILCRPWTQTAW
The experiment in a line: Radioligand binding experiment for α2B-adrenergic receptor ([3H]-raulwolscine). The protocol: (§1) In general, a low concentration of a radioligand with a high binding affinity for a particular receptor or transporter is incubated with a sample of a tissue preparation enriched in a particular receptor or transporter or with a preparation of cells expressing cloned human receptors in a buffered medium. During the incubation, the radioligand binds to the receptor or transporter. When equilibrium of binding is reached, the receptor bound radioactivity is separated from the non-bound radioactivity, and the receptor- or transporter-bound activity is counted. The interaction of the test compounds with the receptor is assessed in competition binding experiments. Various concentrations of the test compound are added to the incubation mixture containing the receptor- or transporter preparation and the radioligand. The test compound in proportion to its binding affinity and its concentration inhibits binding of the radioligand. The radioligand used for hα2A, hα2B and hα2C receptor binding was [^3H]-raulwolscine and for the h5-HT transporter was [^3H]paroxetine. CHO cells, stabile transfected with human adrenergic-α2A-, -α2B or α2C receptor cDNA, were cultured in Dulbecco's Modified Eagle's Medium (DMEM)/Nutrient mixture Ham's F12 (ratio 1:1)(Gibco, Gent-Belgium) supplemented with 10% heat inactivated fetal calf serum (Life Technologies, Merelbeke-Belgium) and antibiotics (100 IU/ml penicillin G, 100 μg/ml streptomycin sulphate, 110 μg/ml pyruvic acid and 100 μg/ml L-glutamine). One day before collection, cells were induced with 5 mM sodiumbutyrate. Upon 80-90% of confluence, cells were scraped in phosphate buffered saline without Ca^2+ and Mg^2+ and collected by centrifugation at 1500×g for 10 min. The cells were homogenised in Tris-HCl 50 mM using an Ultraturrax homogenizer and centrifuged for 10 min at 23,500×g. The pellet was washed once by resuspension and rehomogenization and the final pellet was resuspended in Tris-HCl, divided in 1 ml aliquots and stored at −70° C. Membranes were thawed and re-homogenized in incubation buffer (glycylglycine 25 mM, pH 8.0). In a total volume of 500 μl, 2-10 μg protein was incubated with [^3H]raulwolscine (NET-722) (New England Nuclear, USA) (1 nM final concentration) with or without competitor for 60 min at 25° C. followed by rapid filtration over GF/B filter using a Filtermate196 harvester (Packard, Meriden, Conn.). Filters were rinsed extensively with ice-cold rinsing buffer (Tris-HCl 50 mM pH 7.4). Filter-bound radioactivity was determined by scintillation counting in a Topcount (Packard, Meriden, Conn.) and results were expressed as counts per minute (cpm). Non-specific binding was determined in the presence of 1 μM oxymetazoline for hα2A- and hα2B receptors and 1 μM spiroxatrine for hα2C receptors. Data from assays in the presence of compound were calculated as a percentage of total binding measured in the absence of test compound. Inhibition curves, plotting percent of total binding versus the log value of the concentration of the test compound, were automatically generated, and sigmoidal inhibition curves were fitted using non-linear regression. The pIC50 values of test compounds were derived from individual curves.

Another series concerns the target T2, hα2A receptor (Homo sapiens, UniProt P08913).
T2 construct: expressed in transfected cells
T2 sequence (P08913 1-465): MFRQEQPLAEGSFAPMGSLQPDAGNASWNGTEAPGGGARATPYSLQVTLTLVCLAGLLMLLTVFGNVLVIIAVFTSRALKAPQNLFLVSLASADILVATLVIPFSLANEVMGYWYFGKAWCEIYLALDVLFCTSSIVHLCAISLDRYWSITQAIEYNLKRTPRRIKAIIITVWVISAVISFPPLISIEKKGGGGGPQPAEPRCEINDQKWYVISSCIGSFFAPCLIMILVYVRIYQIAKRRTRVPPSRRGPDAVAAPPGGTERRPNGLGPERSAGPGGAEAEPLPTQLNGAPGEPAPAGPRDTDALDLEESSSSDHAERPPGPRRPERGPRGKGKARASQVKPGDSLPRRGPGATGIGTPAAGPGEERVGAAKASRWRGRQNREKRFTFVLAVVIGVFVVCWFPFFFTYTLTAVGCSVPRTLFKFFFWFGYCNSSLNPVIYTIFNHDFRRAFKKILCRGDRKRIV
The experiment in a line: Radioligand binding experiment for α2A-adrenergic receptor ([3H]-raulwolscine). Conditions: CHO cell membranes with human α2A receptor, [3H]raulwolscine 1 nM. The protocol: as §1

A further series has as its target T3, h5-HT transporter (Homo sapiens, UniProt P31645).
T3 construct: Human platelet membranes (Oceanix Biosciences Corporation, Hanover, Md., USA) were thawed; tissue Oceanix Biosciences Corporation, Hanover, Md., USA; host or cells: human platelet membranes
The experiment in a line: Radioligand binding experiment for 5-HT transporter ([3H]paroxetine). To be noted: human platelet membranes, [3H]paroxetine 0.5 nM. How it is done:
In general, a low concentration of a radioligand with a high binding affinity for a particular receptor or transporter is incubated with a sample of a tissue preparation enriched in a particular receptor or transporter or with a preparation of cells expressing cloned human receptors in a buffered medium. During the incubation, the radioligand binds to the receptor or transporter. When equilibrium of binding is reached, the receptor bound radioactivity is separated from the non-bound radioactivity, and the receptor- or transporter-bound activity is counted. The interaction of the test compounds with the receptor is assessed in competition binding experiments. Various concentrations of the test compound are added to the incubation mixture containing the receptor- or transporter preparation and the radioligand. The test compound in proportion to its binding affinity and its concentration inhibits binding of the radioligand. The radioligand used for hα2A, hα2B and hα2C receptor binding was [^3H]-raulwolscine and for the h5-HT transporter was [^3H]paroxetine. Human platelet membranes (Oceanix Biosciences Corporation, Hanover, Md., USA) were thawed, diluted in buffer (Tris-HCl 50 mM, 120 mM NaCl and 5 mM KCl) and quickly (max 3 s) homogenised with an Ultraturrax homogenizer. In a total volume of 250 μL, 50-100 μg protein was incubated with [^3H]paroxetine (NET-869) (New England Nuclear, USA) (0.5 nM final concentration) with or without competitor for 60 min at 25 ° C. Incubation was stopped by rapid filtration of the incubation mixture over GF/B filters, pre-wetted with 0.1% polyethyleneamine, using a Filtermate196 harvester (Packard, Meriden, Conn.). Filters were rinsed extensively with ice-cold buffer and radioactivity on the filters was counted in a Topcount liquid scintillation counter (Packard, Meriden, Conn.). Data were expressed as cpm. Imipramine (at 1 μM final concentration) was used to determine the non-specific binding. Data from assays in the presence of compound were calculated as a percentage of total binding measured in the absence of test compound. Inhibition curves, plotting percent of total binding versus the log value of the concentration of the test compound, were automatically generated, and sigmoidal inhibition curves were fitted using non-linear regression. The pIC50 values of test compounds were derived from individual curves.

The next series addresses T4, hα2C receptor (Homo sapiens, UniProt P18825).
T4 construct: expressed in transfected cells
T4 sequence (P18825 1-462): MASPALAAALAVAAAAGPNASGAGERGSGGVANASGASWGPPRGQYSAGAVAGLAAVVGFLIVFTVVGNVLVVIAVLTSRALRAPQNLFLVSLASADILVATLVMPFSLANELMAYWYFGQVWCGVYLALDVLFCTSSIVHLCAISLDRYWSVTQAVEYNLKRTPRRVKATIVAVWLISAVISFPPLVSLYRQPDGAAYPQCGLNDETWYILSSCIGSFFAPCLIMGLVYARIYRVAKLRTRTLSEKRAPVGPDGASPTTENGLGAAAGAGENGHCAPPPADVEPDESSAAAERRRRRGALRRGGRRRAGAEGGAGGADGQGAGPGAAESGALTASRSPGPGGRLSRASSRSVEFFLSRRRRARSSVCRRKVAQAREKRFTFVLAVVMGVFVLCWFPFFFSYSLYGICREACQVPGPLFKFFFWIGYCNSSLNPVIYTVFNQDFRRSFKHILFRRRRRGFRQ
Kind of series: Radioligand binding experiment for α2C-adrenergic receptor ([3H]-raulwolscine). How it is done: as §1

[1] abbreviates: CHO cell membranes with human α2B receptor, [3H]raulwolscine 1 nM.
The mark [2] stands for this setting: CHO cell membranes with human α2C receptor, [3H]raulwolscine 1 nM.
The mark [3] stands for this setting: read-out: hα2A (pIC50) (converted).
The mark [4] stands for this setting: read-out: 5-HTT (pIC50) (converted).
Setting [5] is: CHO cell membranes with human α2C receptor, [3H]raulwolscine 1 nM, read-out: hα2C (pIC50) (converted).

Several values for one entry are separate records, joined by “and”; a condition that tells them apart may be missing. Identical values can stand only once. Counter-ions that a name gives are not always drawn. Like-named read-outs stand apart in the source and are kept apart here.

T3 sequence (P31645 whole entry): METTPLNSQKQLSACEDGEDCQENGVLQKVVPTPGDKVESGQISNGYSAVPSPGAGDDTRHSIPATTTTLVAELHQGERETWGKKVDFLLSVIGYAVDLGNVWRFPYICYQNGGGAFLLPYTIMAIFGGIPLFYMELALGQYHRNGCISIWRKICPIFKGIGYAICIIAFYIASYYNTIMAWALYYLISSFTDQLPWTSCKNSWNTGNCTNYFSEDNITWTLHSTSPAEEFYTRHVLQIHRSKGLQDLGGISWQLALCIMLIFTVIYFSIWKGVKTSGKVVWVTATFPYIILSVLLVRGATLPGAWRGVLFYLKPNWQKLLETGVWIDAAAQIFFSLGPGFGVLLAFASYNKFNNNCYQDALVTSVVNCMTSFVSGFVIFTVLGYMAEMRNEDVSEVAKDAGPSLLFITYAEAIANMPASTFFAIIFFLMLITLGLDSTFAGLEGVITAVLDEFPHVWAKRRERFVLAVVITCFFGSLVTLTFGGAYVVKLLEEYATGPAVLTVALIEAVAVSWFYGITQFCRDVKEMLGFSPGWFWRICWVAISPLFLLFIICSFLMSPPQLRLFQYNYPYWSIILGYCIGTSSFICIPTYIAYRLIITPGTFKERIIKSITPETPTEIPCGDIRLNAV

`C/C(=C\c1ccc(F)cc1)CN1CCN(CC2ON=C3c4cc5cc[nH]c5cc4OCC32)CC1` (racemic) [Compound 3]: on hα2B receptor (setting [1]), the “hα2B (pIC50)” value is 7.6. Further, the “hα2A (pIC50)” value on hα2A receptor was found to be 7.8. Also, the “5-HTT (pIC50)” value on h5-HT transporter is recorded as 8.2. Further, the “hα2C (pIC50)” value at hα2C receptor (setting [2]) was 8.7.
Turning to `c1ccc2cc(CN3CCN(CC4ON=C5c6cc7cc[nH]c7cc6OCC54)CC3)ccc2c1` (racemic) [Compound 4], at hα2B receptor (setting [1]), the “hα2B (pIC50)” value worked out at 7.3. Further, on hα2A receptor, the “hα2A (pIC50)” value was 7.6. In addition, the “5-HTT (pIC50)” value on h5-HT transporter was 8.8. Moreover, the “hα2C (pIC50)” value at hα2C receptor (setting [2]) is reported as 8.4.
With `COC(=O)Cn1ccc2cc3c(cc21)OCC1C3=NOC1CN1CCN(C/C(C)=C/c2ccccc2)CC1` (stereo not shown) [Compound 10, {3-[4-(2-methyl-3-phenyl-allyl)-piperazin-1-ylmethyl]-3a,4-dihydro-3H-2,5-dioxa-1,7-diaza-dicyclopenta[a,g]naphthlen-7-yl}-acetic acid methyl ester], the IC50 was 5.01 nM at hα2B receptor, 12.6 nM on hα2A receptor (hα2A (pIC50)), 2 nM on h5-HT transporter (5-HTT (pIC50)) and 0.794 nM at hα2C receptor.
One may read the melting point as the temperature of the solid-liquid transition. Molecule `C/C(=C\c1ccccc1)CN1CCN(CC2ON=C3c4cc5ccn(CCO)c5cc4OCC32)CC1` (single isomer, unassigned) [Compound 16, A-2-{3-[4-(2-methyl-3-phenyl-allyl)-piperazin-1-ylmethyl]-3a,4-dihydro-3H-2,5-dioxa-1,7-diaza-dicyclopenta[a,g]naphthalen7-yl}-ethanol] returned a melting point of 167.9 to 170.2 °C. This molecule also showed an IC50 at hα2B receptor (hα2B (pIC50), CHO cell membranes with human α2B receptor, [3H]raulwolscine 1 nM) of 20 nM. This molecule showed an IC50 on hα2A receptor (hα2A (pIC50)) of 316 nM. Further, on h5-HT transporter, the “5-HTT (pIC50)” value was 6.3. Also, the IC50 at hα2C receptor (hα2C (pIC50), CHO cell membranes with human α2C receptor, [3H]raulwolscine 1 nM) is 50.1 nM.
The molecule `C/C(=C\c1ccc(F)cc1)CN1CCN(CC2ON=C3c4ncccc4OCC32)CC1` (stereo not shown) [Compound 24, 3-{4-[3-(4-fluoro-phenyl)-2-methyl-allyl]-piperazin-1-ylmethyl}-3a,4-dihydro-3H-2,5-dioxa-1,9-diaza-cyclopenta[a]naphthalene] displayed a melting point of 145.6 to 152.3 °C. On hα2A receptor (setting [3]), the IC50 was 6.31 nM. The IC50 at h5-HT transporter (setting [4]) was 200 nM. Besides, the IC50 at hα2C receptor (setting [5]) is 31.6 nM.
The like results for `C/C(=C\c1ccc(F)cc1)CN1CCN(CC2ON=C3c4sccc4OCC32)CC1` (stereo not shown) [Compound 27, 3-{4-[3-(4-fluoro-pheny)-2-methyl-allyl]-piperazin-1-ylmethyl}-3a,4-dihydro-3H-2,5-dioxa-8-thia-1-aza-as-indacene] were, in that order, 142.3 to 146 °C, 2 nM, 79.4 nM and 7.94 nM.
On to `C/C(=C\c1ccccc1)CN1CCN(CC2ON=C3c4ccncc4OCC32)CC1` (stereo not shown) [Compound 18, 3-[4-(2-methyl-3-phenyl-allyl)-piperazin-1-ylmethyl]-3a,4-dihydro-3H-2,5-dioxa-1,7-diaza-cyclopenta[a]naphthalene oxalate salt (1/1)], for which the IC50 on hα2B receptor (CHO cell membranes with human α2B receptor, [3H]raulwolscine 1 nM, read-out: hα2B (pIC50) (converted)) was 1.58 nM; at hα2A receptor (setting [3]), 1.26 nM and 1.58 nM; on h5-HT transporter (setting [4]) it was 200 nM and 31.6 nM; on hα2C receptor (setting [5]), 1.58 nM.
Turning to `C/C(=C\c1cccc(F)c1)CN1CCN(CC2ON=C3c4cc5cc[nH]c5cc4OCC32)CC1` (racemic) [Compound 2], the “hα2B (pIC50)” value at hα2B receptor (setting [1]) was determined as 8.3. Further, the “hα2A (pIC50)” value at hα2A receptor stood at 8.1. Also, the “5-HTT (pIC50)” value at h5-HT transporter is 8.3. Further, the “hα2C (pIC50)” value at hα2C receptor (setting [2]) turned out to be 9.0.
For the molecule `C/C(=C\c1ccccc1)CN1CCN(CC2ON=C3c4ccncc4OCC32)CC1` (stereo not shown) (as salt: oxalate) [Compound 18, 3-[4-(2-methyl-3-phenyl-allyl)-piperazin-1-ylmethyl]-3a,4-dihydro-3H-2,5-dioxa-1,7-diaza-cyclopenta[a]naphthalene oxalate salt (1/1)], the melting point fell in the range of 216.8 to 220.5 °C.
